According to US8952024B2, “Herbicidal pyrimidone derivatives” (E I du Pont de Nemours and Company, priority 2009, dated 2015):

What was measured:
Assay type in all cases: in vivo
[1] = system: goosegrass (Eleusine indica); test: Test B pre-/postemergence plant response; conditions: Preemergence, 62 g ai/ha; scale 0 to 100, 0 no effect, 100 complete control
[2] = system: corn (Zea mays); test: Test A pre-/postemergence plant response
In short: (§1)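 Approximately ten days after concurrent pre- and postemergence spraying in a greenhouse, plants were compared with untreated controls and rated visually for injury, 0 = no effect to 100 = complete control. Preemergence spray was directed onto loam/sand soil; postemergence targeted 1–2 leaf seedlings.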

[3] = system: giant foxtail (Setaria faberii); test: Test A pre-/postemergence plant response
In short: as §1

[4] = system: velvetleaf (Abutilon theophrasti); test: Test A pre-/postemergence plant response
In short: as §1

[5] = system: barnyardgrass (Echinochloa crus-galli); test: Test A pre-/postemergence plant response
In short: as §1

[6] = system: large crabgrass (Digitaria sanguinalis); test: Test A pre-/postemergence plant response
In short: as §1

[7] = system: wheat (Triticum aestivum); test: Test A pre-/postemergence plant response
In short: as §1

[8] = system: windgrass (Apera spica-venti); test: Test B postemergence plant response; conditions: Postemergence; for Plant response rating, Windgrass: scale 0 (no effect) to 100 (complete control)
In short: (§2)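 Visual ratings from 0 (no effect) to 100 (complete control), made against controls 13–15 days after treatment, kept in a greenhouse. Compounds were applied postemergence to potted plants at the 1- to 4-leaf stage (2–18 cm).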

[9] = system: winter barley (Hordeum vulgare); test: Test B postemergence plant response; conditions: Postemergence; for Barley plant response rating: 250 g ai/ha, scale 0 to 100
In short: as §2

[10] = system: canarygrass (Phalaris minor); test: Test B postemergence plant response; conditions: Postemergence; for Canarygrass plant response rating: 250 g ai/ha, scale 0 to 100
In short: as §2

[11] = system: chickweed (Stellaria media); test: Test B postemergence plant response; conditions: Postemergence; for Chickweed plant response rating: 250 g ai/ha, scale 0 to 100
In short: as §2

[12] = system: galium (catchweed bedstraw, Galium aparine); test: Test B pre-/postemergence plant response; conditions: Preemergence; for Galium plant response rating: 125 g ai/ha
In short: (§3)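 Pre-em in loam/sand; post-em at 1–4 leaf (2–18 cm) in peat mix. Solvent + surfactant formulation. Greenhouse 13–15 d; visual % control vs untreated, 0–100.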

[13] = system: sunflower (common oilseed sunflower, Helianthus annuus); test: Test B pre-/postemergence plant response; conditions: Preemergence; for Sunflower plant response rating: 125 g ai/ha
In short: as §3

[14] = system: nightshade (eastern black nightshade, Solanum ptycanthum); test: Test B pre-/postemergence plant response; conditions: Preemergence; for Nightshade plant response rating: 125 g ai/ha
In short: as §3

[15] = Postemergence, 125 g ai/ha, visual injury, 0 to 100 scale (0 no effect, 100 complete control), approx. ten days
[16] = Postemergence, 500 g ai/ha, 0 to 100 scale, 0 = no effect, 100 = complete control, approx. ten days
[17] = Preemergence, 125 g ai/ha, 0 to 100 scale, 0 = no effect, 100 = complete control
[18] = Preemergence, 500 g ai/ha, visual injury, 0 to 100 scale (0 no effect, 100 complete control), approx. ten days
[19] = 125 g ai/ha, visual rating after 13 to 15 days
[20] = 31 g ai/ha, scale 0 to 100 (0 no effect, 100 complete control)
[21] = 62 g ai/ha, scale 0 (no effect) to 100 (complete control), 13 to 15 days
[22] = 125 g ai/ha, visual rating after 13 to 15 days, scale 0 (no effect) to 100 (complete control)
[23] = 62 g ai/ha, scale 0 to 100, 0 no effect, 100 complete control

Cc1ccc(C)c(-n2c(-c3ccccc3)ncc(C(=O)C3=C(O)CCCC3=O)c2=O)c1 [Compound 29]
Plant response rating, Goosegrass [1]: 100
Corn plant response rating [2, 15]: 0
Plant response rating, Corn [2, 16]: 10
Plant response rating, Corn [2, 17]: 0
Plant response rating, Corn [2, 18]: 0
Foxtail, Giant plant response rating [3, 15]: 70
Plant response rating, Foxtail, Giant [3, 16]: 90
Plant response rating, Foxtail, Giant [3, 17]: 30
Plant response rating, Foxtail, Giant [3, 18]: 100
Velvetleaf plant response rating [4, 15]: 100
Plant response rating, Velvetleaf [4, 16]: 100
Plant response rating, Velvetleaf [4, 17]: 20
Plant response rating, Velvetleaf [4, 18]: 100
Barnyardgrass plant response rating [5, 15]: 20
Plant response rating, Barnyardgrass [5, 16]: 90
Plant response rating, Barnyardgrass [5, 17]: 0
Plant response rating, Barnyardgrass [5, 18]: 100
Crabgrass, Large plant response rating [6, 15]: 70
Plant response rating, Crabgrass, Large [6, 16]: 90
Plant response rating, Crabgrass, Large [6, 17]: 20
Plant response rating, Crabgrass, Large [6, 18]: 100
Wheat plant response rating [7, 15]: 0
Plant response rating, Wheat [7, 16]: 0
Plant response rating, Wheat [7, 17]: 0
Plant response rating, Wheat [7, 18]: 0
Plant response rating, Windgrass ([8]; 62 g ai/ha, 13 to 15 days): 10
Plant response rating, Windgrass [8, 19]: 30
Windgrass plant response rating ([8]; 250 g ai/ha, scale 0 to 100): 50
Plant response rating, Barley [9, 20]: 0
Plant response rating, Barley [9, 21]: 0
Plant response rating, Barley [9, 22]: 0
Barley plant response rating [9]: 0
Plant response rating, Canarygrass [10, 20]: 10
Plant response rating, Canarygrass [10, 21]: 20
Plant response rating, Canarygrass [10, 22]: 40
Canarygrass plant response rating [10]: 40
Plant response rating, Chickweed [11, 20]: 50
Plant response rating, Chickweed [11, 21]: 50
Plant response rating, Chickweed [11, 22]: 50
Chickweed plant response rating [11]: 85
Plant response rating, Galium ([12]; 250 g ai/ha, 0 to 100 scale): 100
Plant response rating, Galium [12, 20]: 50
Plant response rating, Galium [12, 23]: 80
Galium plant response rating ([12]; 0 to 100 scale): 98
Plant response rating, Sunflower ([13]; 250 g ai/ha, 0 to 100 scale): 100
Plant response rating, Sunflower [13, 20]: 75
Plant response rating, Sunflower [13, 23]: 85
Sunflower plant response rating ([13]; 0 to 100 scale): 90
Plant response rating, Nightshade ([14]; 250 g ai/ha, 0 to 100 scale): 100
Plant response rating, Nightshade [14, 20]: 90
Plant response rating, Nightshade [14, 23]: 90
Nightshade plant response rating ([14]; 0 to 100 scale): 100

O=C1CCCC(O)=C1C(=O)c1cnc(-c2cccc(Cl)c2)n(-c2ccccc2)c1=O [Compound 34]
Plant response rating, Goosegrass [1]: 100
Corn plant response rating [2, 15]: 0
Plant response rating, Corn [2, 16]: 30
Plant response rating, Corn [2, 17]: 0
Plant response rating, Corn [2, 18]: 0
Foxtail, Giant plant response rating [3, 15]: 90
Plant response rating, Foxtail, Giant [3, 16]: 100
Plant response rating, Foxtail, Giant [3, 17]: 60
Plant response rating, Foxtail, Giant [3, 18]: 100
Velvetleaf plant response rating [4, 15]: 100
Plant response rating, Velvetleaf [4, 16]: 100
Plant response rating, Velvetleaf [4, 17]: 50
Plant response rating, Velvetleaf [4, 18]: 100
Barnyardgrass plant response rating [5, 15]: 90
Plant response rating, Barnyardgrass [5, 16]: 100
Plant response rating, Barnyardgrass [5, 17]: 10
Plant response rating, Barnyardgrass [5, 18]: 100
Crabgrass, Large plant response rating [6, 15]: 90
Plant response rating, Crabgrass, Large [6, 16]: 100
Plant response rating, Crabgrass, Large [6, 17]: 90
Plant response rating, Crabgrass, Large [6, 18]: 100
Wheat plant response rating [7, 15]: 0
Plant response rating, Wheat [7, 16]: 30
Plant response rating, Wheat [7, 17]: 0
Plant response rating, Wheat [7, 18]: 0
Plant response rating, Windgrass ([8]; 62 g ai/ha, 13 to 15 days): 40
Plant response rating, Windgrass [8, 19]: 50
Plant response rating, Barley [9, 20]: 0
Plant response rating, Barley [9, 21]: 30
Plant response rating, Barley [9, 22]: 30
Barley plant response rating [9]: 30
Plant response rating, Canarygrass [10, 20]: 5
Plant response rating, Canarygrass [10, 21]: 50
Plant response rating, Canarygrass [10, 22]: 50
Canarygrass plant response rating [10]: 50
Plant response rating, Chickweed [11, 20]: 50
Plant response rating, Chickweed [11, 21]: 75
Plant response rating, Chickweed [11, 22]: 98
Chickweed plant response rating [11]: 100
Plant response rating, Galium ([12]; 250 g ai/ha, 0 to 100 scale): 98
Plant response rating, Galium [12, 20]: 10
Plant response rating, Galium [12, 23]: 50
Galium plant response rating ([12]; 0 to 100 scale): 90
Plant response rating, Sunflower ([13]; 250 g ai/ha, 0 to 100 scale): 90
Plant response rating, Sunflower [13, 20]: 55
Plant response rating, Sunflower [13, 23]: 70
Sunflower plant response rating ([13]; 0 to 100 scale): 80
Plant response rating, Nightshade ([14]; 250 g ai/ha, 0 to 100 scale): 100
Plant response rating, Nightshade [14, 20]: 55
Plant response rating, Nightshade [14, 23]: 95
Nightshade plant response rating ([14]; 0 to 100 scale): 100
